Measured values reported in patent publication US6652890B2, “Tea catechins as cancer specific proliferation inhibitors” (Purdue Research Foundation, priority 1999, dated 2003).

Biological target: T1, NADH oxidase of plasma membranes from MCF-10A human mammary epithelial (non-cancer) cells (Homo sapiens, UniProt Q8TC92)
T1 construct: endogenous in cells; host or cells: MCF-10A plasma membrane vesicles
T1 sequence (Q8TC92 1-643): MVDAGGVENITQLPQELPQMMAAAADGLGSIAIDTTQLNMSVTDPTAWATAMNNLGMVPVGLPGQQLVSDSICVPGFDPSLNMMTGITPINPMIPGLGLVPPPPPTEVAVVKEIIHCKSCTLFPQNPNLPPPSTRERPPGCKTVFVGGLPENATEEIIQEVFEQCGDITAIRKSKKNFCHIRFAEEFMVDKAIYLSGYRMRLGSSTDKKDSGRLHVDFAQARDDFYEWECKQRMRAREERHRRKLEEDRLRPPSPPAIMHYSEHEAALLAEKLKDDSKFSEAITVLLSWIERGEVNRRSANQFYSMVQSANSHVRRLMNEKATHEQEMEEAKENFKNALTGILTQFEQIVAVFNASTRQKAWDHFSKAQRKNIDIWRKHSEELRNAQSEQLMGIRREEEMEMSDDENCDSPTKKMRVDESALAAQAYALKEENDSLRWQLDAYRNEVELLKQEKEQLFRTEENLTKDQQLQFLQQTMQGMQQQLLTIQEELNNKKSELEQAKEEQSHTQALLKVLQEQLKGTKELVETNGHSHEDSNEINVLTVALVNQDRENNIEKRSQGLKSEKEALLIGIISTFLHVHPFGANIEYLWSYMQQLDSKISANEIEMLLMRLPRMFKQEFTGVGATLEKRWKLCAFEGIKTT
Test: NADH oxidase activity of isolated plasma membrane vesicles
Format: biochemical
Details: EGCg dose-response, FIG. 2A
Experimental: Cultured cells were collected by centrifugation for 6-15 min at 175-1000×g. The cell pellets were resuspended in 0.2 mM EDTA in 1 mM NaHCO3 in an approximate ratio of 1 ml per 10^8 cells and incubated on ice for 10-30 min to swell the cells. […] To estimate breakage, the cells were monitored by light microscopy before and after homogenization. At least 90% cell breakage without breakage of nuclei was achieved routinely.
The homogenates were centrifuged for 10 min at 175×g to remove unbroken cells and nuclei and the supernatant was centrifuged a second time at 1.4×10^6 g·min (e.g., 1 h at 23,500×g) to prepare a plasma membrane-enriched microsome fraction. The supernatant was discarded and the pellets were resuspended in 0.2 M potassium phosphate buffer in a ratio of ˜1 ml per pellet from 5×10^8 cells. […] The purity of the plasma membrane was determined to be >90% by electron microscope morphometry. […]
NADH oxidase activity was determined as the disappearance of NADH measured at 340 nm in a reaction mixture containing 25 mM Tris-Mes buffer (pH 7.2), 1 mM KCN to inhibit low levels of mitochondrial oxidase activity, and […] at 37° C. with stirring. Activity was measured using a Hitachi U3210 or SLM Aminco DW2000 spectrophotometer with continuous recording over two intervals of 5 min each. […]

Effect on NADH oxidase activity: without effect
Substance: (−) - epigallocatechin gallate [EGCg]
